This assay has as its target T1, TRPA1 receptor (Homo sapiens, UniProt O75762).
T1 construct: expressed in transfected cells; host or cells: HEK cell line
Description: cell-based. Details: activation: dose or concentration left out as unconfirmed. On the procedure: The term “TRPA1 activator” as used herein refers to any component which at a concentration of 1 mM gives a calcium flux count of at least 1000 counts above the background level of calcium present in the cell according to the FLIPR method as discussed herein. The term “count” is defined as the change in fluorescence of the transfected cell lines due to the influx of calcium across the cell membrane, which reacts with the calcium sensitive dye present within the cells.
In order to select TRPA1 agonists that would be preferred for reducing off-tasting chemical components found in oral care compositions, calcium flux receptor activity on the TRPA1 was utilized as the criteria for selection of actives. With allyl isothiocyanate as the TRPA1 positive control, molecules that directly activated the TRPA1 receptor were screened in dimethylsulfoxide (DMSO). Pure molecules of each material were dissolved in DMSO at a concentration of 100 micormolar and then added to an HEK cell line containing the TRPA1 receptor. If they are TRPA1 agonists, they will cause a calcium flux in the cell which fluoresces and may then be measured using a FLIPR machine.

The mark [1] stands for this setting: HEK293, percentage of the control (allyl isothiocyanate) calcium count, material dissolved in DMSO at 100 micromolar, HEK cells with TRPA1, direct addition, read-out: TRPA1 Direct addition.
Where [2] appears, read: HEK293, percentage of the control (allyl isothiocyanate) calcium count, material dissolved in DMSO at 100 micromolar, HEK cells with TRPA1, pre-incubation, read-out: TRPA1 Pre-incubation.
Setting [3] is: HEK293, read-out: TRPA1 Direct addition.
[4] abbreviates: HEK293, read-out: TRPA1 Pre-incubation.

Here are results for 63 molecules from patent publication US9937115B2, “Oral care compositions with improved flavor” (priority 2010, dated 2018).

Read-outs that look alike come from different tables or passages of the source.
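Wherever TRPA1 Pre-incubation is given: values above 100 mean more active than the control.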

T1 sequence (O75762 whole entry): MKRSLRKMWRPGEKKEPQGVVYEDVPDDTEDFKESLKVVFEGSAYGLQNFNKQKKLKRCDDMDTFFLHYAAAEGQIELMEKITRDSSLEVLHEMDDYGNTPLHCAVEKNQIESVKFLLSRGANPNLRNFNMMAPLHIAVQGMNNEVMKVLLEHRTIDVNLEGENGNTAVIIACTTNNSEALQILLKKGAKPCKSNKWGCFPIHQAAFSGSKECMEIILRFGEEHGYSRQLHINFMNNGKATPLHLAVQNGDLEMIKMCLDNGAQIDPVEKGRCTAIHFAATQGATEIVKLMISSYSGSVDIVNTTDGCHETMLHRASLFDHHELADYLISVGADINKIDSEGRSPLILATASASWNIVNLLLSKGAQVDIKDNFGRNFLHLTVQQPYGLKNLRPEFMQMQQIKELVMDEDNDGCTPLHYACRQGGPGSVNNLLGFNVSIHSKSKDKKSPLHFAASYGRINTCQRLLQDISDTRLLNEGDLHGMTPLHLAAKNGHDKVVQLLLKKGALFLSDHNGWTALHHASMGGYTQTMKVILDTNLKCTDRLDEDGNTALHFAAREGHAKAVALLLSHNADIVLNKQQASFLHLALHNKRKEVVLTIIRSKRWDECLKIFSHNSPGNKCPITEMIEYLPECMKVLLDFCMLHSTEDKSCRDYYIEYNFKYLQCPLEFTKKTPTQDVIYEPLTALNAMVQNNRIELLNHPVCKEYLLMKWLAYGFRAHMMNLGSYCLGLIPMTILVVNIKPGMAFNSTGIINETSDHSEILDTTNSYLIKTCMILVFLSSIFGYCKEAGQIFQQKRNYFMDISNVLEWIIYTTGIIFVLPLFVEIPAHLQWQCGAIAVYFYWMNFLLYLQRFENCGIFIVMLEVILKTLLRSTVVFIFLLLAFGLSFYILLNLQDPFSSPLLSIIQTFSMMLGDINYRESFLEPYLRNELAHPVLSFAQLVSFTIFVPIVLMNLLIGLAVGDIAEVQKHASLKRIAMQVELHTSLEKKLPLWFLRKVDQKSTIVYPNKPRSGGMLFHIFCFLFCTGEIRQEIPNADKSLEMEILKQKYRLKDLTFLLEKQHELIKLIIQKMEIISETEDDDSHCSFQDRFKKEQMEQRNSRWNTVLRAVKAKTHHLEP

In the case of `CCCC(=O)OC/C=C(\C)CCC=C(C)C` [Geranyl Butyrate], under setting [1], the activation at 100 µM worked out at 0.12%. Besides, the activation under setting [2] is 61.5%.

On to `CC1=C(O)C(=O)C(C)O1` (stereo not drawn) [4-Hydroxy-2,5-Dimethyl-3(2H)-Furanone], for which the activation at 100 µM under setting [1] was found to be 2.68%. The activation under setting [2] came to 72%.

For the molecule `CCCCCCC(C)=O` [Material 2-Octanone, 2-Octanone], the activation at 100 µM under setting [1] was -17.1%. Also, the activation under setting [2] was 93.3%.

Take `CCC1OC(=O)C(O)=C1C` (stereo not drawn) [5-Ethyl-3-Hydroxy-4-Methyl-2(5H)-Furanone]: the activation at 100 µM under setting [1] came out at 1.79%. Besides, the activation under setting [2] is 72.5%.

For the molecule `CCC(=O)OCc1ccccc1` [Benzyl Propionate], under setting [1], the activation at 100 µM was found to be 0.52%. For the same molecule, the activation under setting [2] is 63%.

On to `CC(=O)OCC(COC(C)=O)OC(C)=O` [Triacetin], for which the activation at 100 µM under setting [1] was -17.1%. Moreover, the activation under setting [2] worked out at 79.3%.

`COc1cccc(OC)c1` [M-Dimethoxybenzene]: the activation at 100 µM under setting [1] is -0.59%. Further, under setting [2], the activation amounted to 80.6%.

Take `CCC(C)CO` (stereo not drawn) [2-Methyl-1-Butanol]: under setting [1], the activation at 100 µM is -1.19%. The activation under setting [2] amounted to 71.6%.

For `O=C([O-])C(=O)[O-].[Zn+2]` [Zinc Oxalate], the “TRPA1 Direct addition” value is listed as 40.18% and the “TRPA1 Pre-incubation” value was 18.11%.

With `OC/C=C/c1ccccc1` [Cinnamic Alcohol], the activation at 100 µM under setting [1] is -1.45%. In addition, the activation under setting [2] came to 84%.

With `Cc1coc2c1CCC(C)C2` (stereo not drawn) [4,5,6,7-Tetrahydro-3,6-Dimethylbenzofuran], the activation at 100 µM under setting [1] came out at 0.57%. Moreover, the activation under setting [2] is 84.8%.

As to `CC(=O)OC1CCCCC1` [Cyclohexyl Acetate], the activation at 100 µM under setting [1] is -1.27%. The activation under setting [2] was 68.8%.

Consider Methyl Ionone, for which the “TRPA1 Direct addition” value amounted to 38.43% and the “TRPA1 Pre-incubation” value is recorded as −1.32%.

As to `CCC/C=C/COC(C)=O` [Trans-2-Hexenyl Acetate], under setting [1], the activation at 100 µM was -0.32%. Moreover, under setting [2], the activation came to 68.7%.

Regarding `O=S(=O)([O-])NC1CCCCC1.[Na+]` [Sodium Cyclamate], the “TRPA1 Direct addition” value was −4.07% and the “TRPA1 Pre-incubation” value stood at 48.66%.

`CCCCC(=O)OCC` [Ethyl Valerate]: the activation at 100 µM under setting [1] was -0.08%. The activation under setting [2] amounted to 101%.

`CC/C=C\CC1=C(C)CCC1=O` [Jasmone]: under setting [1], the activation at 100 µM amounted to 46.5%. In addition, the activation under setting [2] was found to be 51.6%.

As for `CCCCCCOC(C)=O` [Hexyl Acetate], the activation at 100 µM under setting [1] is -0.01%. Besides, the activation under setting [2] worked out at 49.1%.

For the molecule `CC(C)C(=O)OCc1ccccc1` [Benzyl Isobutyrate], the activation at 100 µM under setting [1] was -2.7%. Also, the activation under setting [2] was 65%.

For the molecule `CCCCCC/C=C/CO` [Trans-2-Nonen-1-ol], the activation at 100 µM under setting [1] was -0.49%. Also, the activation under setting [2] was determined as 115%.

As to `CCCCCCCO` [Heptyl Alcohol], under setting [1], the activation at 100 µM was determined as 0.59%. The activation under setting [2] was determined as 70.7%.

In the case of `CCCOC(=O)c1ccc(O)cc1` [n-Propyl-4-hydroxybenzoate], under setting [1], the activation at 100 µM was 173%. Moreover, the activation under setting [2] is 8.13%.

As to `CCC(C)C1CCCCC1=O` (stereo not drawn) [2-sec-Butylcyclohexanon], the activation at 100 µM under setting [1] was -1.47%. Further, the activation under setting [2] stood at 63.7%.

As for `CC1(C)C2CCC1(C)C(O)C2` (stereo not drawn) [Borneol], the activation at 100 µM under setting [1] was -1.6%. In addition, the activation under setting [2] worked out at 51%.

Take `CC(C)CC(=O)OCC=Cc1ccccc1` [Cinnamyl Isovalerate]: under setting [1], the activation at 100 µM is -0.43%. Further, under setting [2], the activation is 49.7%.

`CCOC(=O)Cc1ccccc1` [Ethyl Phenylacetate]: the activation under setting [3] is -0.28% and the activation under setting [4] came out at 76.2%.

On to `O=C(C=Cc1ccccc1)OCc1ccccc1` [Benzyl Cinnamate], for which the activation runs as follows: under setting [1], -2.39%; under setting [2], 81.1%.

As for `CCCCCCCCCCCCO` [Lauryl Alcohol], the activation at 100 µM under setting [1] was -0.86%. Further, under setting [2], the activation was found to be 50.5%.

As to `CC(C)CC=C(C=O)c1ccccc1` [5-Methyl-2-Phenyl-2-Hexenal], the activation is 132% under setting [3] and -11.7% under setting [4].

Take `COC(C=C(C)CCC=C(C)C)OC` [Citral Dimethyl Acetal]: under setting [1], the activation at 100 µM came to 0.16%. Also, the activation under setting [2] is 78%.

For `CC=Cc1ccc(OCc2ccccc2)c(OC)c1` [1-Benzyloxy-2-Mehtoxy-4-(1-Propenyl) Benzene], the “TRPA1 Direct addition” value is on record as −3.8% and the “TRPA1 Pre-incubation” value came to 30.8%.

Turning to `CCCCCC/C=C\CO` [cis-2-nonen-1-ol], the activation at 100 µM under setting [1] is -1.09%. Under setting [2], the activation came out at 79.2%.

Regarding `CCCC(C)=O` [Material 2-Pentanone, 2-Pentanone], the activation at 100 µM under setting [1] was determined as 0.73%. Moreover, under setting [2], the activation is 90.1%.

As for `CCCCCCCCCC(C)=O` [Material 2-Undecanone, 2-Undecanone], the activation at 100 µM under setting [1] is 10.7%. For the same molecule, the activation under setting [2] turned out to be 65.9%.

`CC(C)C(=O)OCCOc1ccccc1` [Phenoxyethyl Isobutyrate]: the activation at 100 µM under setting [1] is -7.84%. Under setting [2], the activation is 36.8%.

As to `CC(C)CCO` [Isoamyl Alcohol], the activation under setting [3] was -0.15% and the activation under setting [4] was determined as 70.9%.

On to `CCCCOC(=O)CCC` [Butyl Butyrate], for which the activation at 100 µM under setting [1] is -0.66%. The activation under setting [2] amounted to 62.3%.

`CCCCCCCCCCCC(=O)OCC` [Ethyl Laurate]: the activation at 100 µM under setting [1] is 0.12%. The activation under setting [2] amounted to 75.8%.

Regarding `O=CC=Cc1ccccc1` [Cinnamaldehyde], under setting [1], the activation at 100 µM came out at 114%. The activation under setting [2] is -1.2%.

Regarding `COC(=O)c1ccccc1N` [Methyl Anthranilate], the activation at 100 µM under setting [1] was 69.6%. The activation under setting [2] was found to be 1.27%.

`COc1cc(C)cc(OC)c1O` [4-Methyl-2,6-Dimethoxyphenol]: the activation at 100 µM under setting [1] was 45.9%. Also, under setting [2], the activation amounted to 9.25%.

For the molecule `CC(=O)OCCC(C)C` [Isoamyl Acetate], under setting [1], the activation at 100 µM amounted to 0.07%. Moreover, the activation under setting [2] was determined as 41%.

On to `Cn1cccc1C=O` [1-Methylpyrrole-2-carboxaldehyde], for which, under setting [1], the activation at 100 µM is -3.47%. For the same molecule, the activation under setting [2] was -1.04%.

As for `CCCCCCOC(=O)CCCCC` [Hexyl Hexanoate], under setting [1], the activation at 100 µM amounted to 0.07%. Further, the activation under setting [2] is 67.4%.

As to `C=CCc1ccc(OC(=O)c2ccccc2)c(OC)c1` [Eugenol benzoate], the activation at 100 µM under setting [1] is 22.9%. In addition, the activation under setting [2] is 57.3%.

As to `CCC/C=C/C=O` [trans-2-Hexenal], the activation at 100 µM under setting [1] stood at 1.62%. Also, the activation under setting [2] is 103%.

Turning to 2-Methybutyl Isovalerate, the “TRPA1 Direct addition” value is on record as −1.49% and the “TRPA1 Pre-incubation” value is recorded as 69.9%.

On to `O=C(OCc1ccccc1)c1ccccc1` [Benzyl Benzoate], for which the activation at 100 µM under setting [1] was 53.9%. For the same molecule, the activation under setting [2] worked out at 18.9%.

Consider `OCc1ccccc1` [Benzyl Alcohol], for which the activation at 100 µM under setting [1] came out at 21.4%. The activation under setting [2] was found to be 14.6%.

Take `C=CC(C)(O)CCC=C(C)C` (stereo not drawn) [Linalool]: the activation at 100 µM under setting [1] was -1.58%. For the same molecule, under setting [2], the activation came out at 44.8%.

As to `CCOC(=O)c1ccccc1O` [Ethyl Salicylate], the activation at 100 µM under setting [1] is -0.53%. Further, the activation under setting [2] came to 106%.

As for `OCCCc1ccccc1` [3-Phenyl-1-Propanol], the activation at 100 µM under setting [1] was -0.04%. In addition, the activation under setting [2] came out at 92.2%.

With `CCCC=O` [Butyraldehyde], the activation at 100 µM under setting [1] was 28.9%. In addition, under setting [2], the activation turned out to be 66.2%.

As for `CCCCCCC(C)O` (stereo not drawn) [Material 2-Octanol, 2-Octanol], under setting [1], the activation at 100 µM was -14.1%. The activation under setting [2] was determined as 55.3%.

Take `CCCCCCCCC=O` [Nonanal]: the activation at 100 µM under setting [1] is -14%. Moreover, the activation under setting [2] is 51.4%.

Consider `CCCCCCCCCCCC(=O)O` [Lauric Acid], for which, under setting [1], the activation at 100 µM is -2.82%. Further, under setting [2], the activation stood at 96%.

Turning to `Cc1occc(=O)c1O` [Maltol], the activation at 100 µM under setting [1] is -2.79%. Also, under setting [2], the activation stood at 102%.

Consider `CC(CC=O)CC(C)(C)C` (stereo not drawn) [3,5,5-Trimethyl Hexanal], for which, under setting [1], the activation at 100 µM was 75.7%. Under setting [2], the activation came out at 92.2%.

Consider `CCOC(=O)c1ccccc1` [Ethyl Benzoate], for which, under setting [1], the activation at 100 µM is -0.07%. In addition, the activation under setting [2] turned out to be 60.3%.

For the molecule `CCC(C)COC(C)=O` (stereo not drawn) [2-Methylbutyl Acetate], under setting [1], the activation at 100 µM is -0.99%. Further, the activation under setting [2] was 60.3%.

For the molecule `CCC=C(C)C(=O)O` [2-Methyl-2-Pentenoic Acid], under setting [1], the activation at 100 µM is -1.27%. The activation under setting [2] was found to be 73.8%.

Regarding `C=CCN=C=S` [Allyl Isothiocyanate, reference compound], the activation under setting [2] was found to be 21.6%. For the setting “restated in Table III from Table II”, the “% of AITC Receptor Activation (from Data in Table II)” value was 100%.

Turning to `CC1=CC(=O)[N-]S(=O)(=O)O1.[K+]` [Acesulfame K], the “TRPA1 Direct addition” value is −0.12% and the “TRPA1 Pre-incubation” value turned out to be 95.57%.
